Data on four compounds can be found in patent US7632933B2, “Corticotropin releasing factor 2 receptor agonists” (priority 2002, dated 2009).

Ends that are not written are not given here. Peptide text beside a SMILES is read from it.

Usually EC50 stands for the concentration that produces a half-maximal response.

The target in one experiment is T1, CRF1R (Homo sapiens, UniProt P34998).
T1 sequence (P34998 24-415): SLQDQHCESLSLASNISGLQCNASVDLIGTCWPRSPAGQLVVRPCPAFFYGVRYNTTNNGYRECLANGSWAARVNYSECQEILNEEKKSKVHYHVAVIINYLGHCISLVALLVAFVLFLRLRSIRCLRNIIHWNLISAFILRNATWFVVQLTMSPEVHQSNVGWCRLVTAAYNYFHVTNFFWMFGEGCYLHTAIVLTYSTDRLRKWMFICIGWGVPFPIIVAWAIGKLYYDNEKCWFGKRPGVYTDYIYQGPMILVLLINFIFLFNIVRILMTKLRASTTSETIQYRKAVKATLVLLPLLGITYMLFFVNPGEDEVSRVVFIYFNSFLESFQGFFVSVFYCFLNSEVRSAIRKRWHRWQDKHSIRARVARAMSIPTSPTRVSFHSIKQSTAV
Put plainly: CRF1R agonist activity (EC50 and Emax), called comparative CRF binding. The conditions noted are these: CRF1R; read-out: CRF1R EC50. In kind it is cell-based. In short, it runs like this:
(§1)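 Steps: express single CRFR subtype in cells; add peptide or vehicle; prepare lysates or quantify CRE-linked reporter (e.g. luciferase, CAT, GFP, alkaline phosphatase) to gauge cAMP increase.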

The target of a further experiment is T2, CRF2R (Homo sapiens, UniProt Q13324).
T2 sequence (Q13324 1-411): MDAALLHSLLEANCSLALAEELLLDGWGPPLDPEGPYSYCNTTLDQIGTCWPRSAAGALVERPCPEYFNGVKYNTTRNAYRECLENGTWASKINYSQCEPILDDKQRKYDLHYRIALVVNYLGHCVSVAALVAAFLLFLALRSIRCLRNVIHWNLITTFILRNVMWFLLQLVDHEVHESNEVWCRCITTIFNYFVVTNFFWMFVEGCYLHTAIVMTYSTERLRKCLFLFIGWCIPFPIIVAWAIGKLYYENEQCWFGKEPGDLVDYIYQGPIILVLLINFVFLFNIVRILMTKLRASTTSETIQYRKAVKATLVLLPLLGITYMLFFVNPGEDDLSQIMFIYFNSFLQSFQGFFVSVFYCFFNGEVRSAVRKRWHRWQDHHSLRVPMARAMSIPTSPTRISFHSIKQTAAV
In words: CRF2R agonist activity (EC50 and Emax), called comparative CRF binding. The conditions noted are these: CRF2R; read-out: CRF2R EC50. In kind it is cell-based. A digest of the protocol: as §1

Take `CC[C@H](C)[C@H](N)C(=O)N[C@H](C(=O)N[C@@H](CC(C)C)C(=O)N[C@@H](CO)C(=O)N[C@@H](CC(C)C)C(=O)N[C@@H](CC(=O)O)C(=O)N[C@H](C(=O)N1CCC[C@H]1C(=O)N[C@H](C(=O)NCC(=O)N[C@@H](CC(C)C)C(=O)N[C@@H](CC(C)C)C(=O)N[C@@H](CCC(N)=O)C(=O)N[C@H](C(=O)N[C@@H](CC(C)C)C(=O)N[C@@H](CC(C)C)C(=O)N[C@@H](CCC(=O)O)C(=O)N[C@@H](CCCCN)C(=O)N[C@@H](C)C(=O)N[C@@H](C)C(=O)N[C@@H](C)C(=O)N[C@@H](CCC(=O)O)C(=O)N[C@@H](C)C(=O)N[C@@H](CCC(=O)O)C(=O)N[C@@H](C)C(=O)N[C@@H](C)C(=O)N[C@@H](C)C(=O)N[C@@H](CCCCN)C(=O)N[C@@H](C)C(=O)N[C@@H](C)C(=O)N[C@@H](CCC(N)=O)C(=O)N[C@@H](CCC(=O)O)C(=O)N[C@@H](CCC(N)=O)C(=O)N[C@H](C(=O)N[C@@H](CC(C)C)C(=O)N[C@@H](C)C(=O)N[C@@H](Cc1c[nH]cn1)C(=O)N[C@H](C(N)=O)C(C)C)[C@@H](C)CC)[C@@H](C)CC)[C@@H](C)CC)C(C)C)C(C)C` [compound 366] (H-IVLSLDVPIGLLQILLEKAAAEAEAAAKAAQEQILAHV-NH2): the concentration giving a half-maximal response (EC50) was at least 1000 nM on CRF1R and at least 100 nM at CRF2R.
The corresponding values for “SQEPPISLDLPIQLLREVLEMTKADQLAQQAHSNRKLLDIA-NH2 [compound 100]” are at least 100 nM and at least 100 nM.
Regarding `CC[C@H](C)[C@H](NC(=O)[C@H](C)NC(=O)[C@H](CC(N)=O)NC(=O)[C@H](CCC(N)=O)NC(=O)[C@H](CCC(=O)O)NC(=O)[C@H](C)NC(=O)[C@H](CCCNC(=N)N)NC(=O)[C@H](CCC(=O)O)NC(=O)[C@H](CCCNC(=N)N)NC(=O)[C@H](CCC(N)=O)NC(=O)[C@H](CO)NC(=O)[C@H](CCC(N)=O)NC(=O)[C@@H](NC(=O)[C@H](CCCNC(=N)N)NC(=O)[C@H](C)NC(=O)[C@H](CC(C)C)NC(=O)[C@H](CCC(=O)O)NC(=O)[C@H](CC(C)C)NC(=O)[C@H](CC(C)C)NC(=O)[C@@H](NC(=O)[C@H](CCCNC(=N)N)NC(=O)[C@H](CC(C)C)NC(=O)[C@H](CC(C)C)NC(=O)[C@H](Cc1ccc(O)cc1)NC(=O)[C@H](CCC(N)=O)NC(=O)[C@@H]1CCCN1C(=O)[C@H](CC(C)C)NC(=O)[C@H](CC(=O)O)NC(=O)[C@@H](NC(=O)[C@H](CO)NC(=O)[C@H](CC(C)C)NC(=O)[C@H](CO)NC(=O)[C@@H]1CCCN1C(=O)[C@H](CC(N)=O)NC(=O)[C@@H](N)CC(=O)O)[C@@H](C)CC)[C@@H](C)O)[C@@H](C)O)C(=O)N[C@H](C(=O)N[C@@H](Cc1ccccc1)C(=O)N[C@@H](C)C(=O)N[C@@H](CO)C(=O)N[C@H](C(N)=O)C(C)C)[C@@H](C)CC` [compound 339] (H-DNPSLSIDLPQYLLRTLLELARTQSQRERAEQNAIIFASV-NH2), the EC50 on CRF1R was at least 1000 nM; at CRF2R it was at least 100 nM.
The corresponding values for “NDDPPISIDLPLILLRNMIEMARIENEREQAGLNAKYLAEV-NH2 [compound 269]” are at least 1000 nM and at least 100 nM.
